According to US10316070B2, “Dual protected pro-coelenterazine substrates” (PROMEGA CORPORATION, priority 2016, dated 2019):

How the values were obtained:
Cathepsin C = target: T1, Cathepsin C (Bos taurus, UniProt Q3ZCJ8); assay: Cathepsin C assay: light output of furimazine mono- or bis-Gly-Phe pro-substrate with Nanoluc, with and without Cathepsin C; assay type: biochemical, bovine; settings: for Signal to Background: Cathepsin C vs none; for Background RLU: without Cathepsin C, Nanoluc
T1 construct: Cathepsin C (Sigma C8511 from bovine spleen); purchased Sigma C8511; host or cells: bovine spleen (tissue-derived)
Procedure: Cathepsin C assay. To the solution of 50 μl of furimazine mono- or bis-Gly-Phe compound (50 μM) in 1:1 NanoGlo and nanopure water containing DTT 5 mM and 50 µL of 1 ng/mL Nanoluc buffer in 1:1 NanoGlo and nanopure water containing 5 mM DTT was added, then 10 μL of Cathepsin C (Sigma C8511 from bovine spleen) at final concentration of 0.1 U/well was added. The light output was measured over time. The background of pro-substrate was measured under same condition without adding Cathepsin C.
(§1) The synthesized coelenterazine analogues (compounds of formula (I)) were evaluated for their background and signal/background ratio.

alkaline phosphatase = assay: Alkaline phosphatase assay: light output of furimazine mono- or bis-phosphate pro-substrate with Nanoluc, with and without alkaline phosphatase; assay type: biochemical; settings: for Signal to Background: alkaline phosphatase vs none; for Background RLU: without alkaline phosphatase, Nanoluc
Procedure: Alkaline phosphatase assays. To the solution of 50 μl furimazine mono- or bis-phosphate compound (50 μM) and 50 μL of NanoGlo buffer containing 1 ng/mL Nanoluc was added, then alkaline phosphatase (Sigma) in PBS with final concentration at 1 Unit/ml/μM was added, and the light output was measured over time. The background of pro-substrate was measured under same condition without adding alkaline phasphotase.
as §1

T1 sequence (Q3ZCJ8 231-394 limits assumed): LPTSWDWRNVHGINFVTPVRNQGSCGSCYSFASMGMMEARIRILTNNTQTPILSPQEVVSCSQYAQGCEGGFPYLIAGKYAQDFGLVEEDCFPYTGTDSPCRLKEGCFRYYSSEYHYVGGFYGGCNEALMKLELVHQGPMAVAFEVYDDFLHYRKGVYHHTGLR
T1 sequence (Q3ZCJ8 25-134 limits assumed): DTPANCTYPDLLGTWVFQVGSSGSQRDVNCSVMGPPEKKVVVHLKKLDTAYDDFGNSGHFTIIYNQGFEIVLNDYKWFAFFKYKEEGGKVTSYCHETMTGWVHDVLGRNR
T1 sequence (Q3ZCJ8 395-463 limits assumed): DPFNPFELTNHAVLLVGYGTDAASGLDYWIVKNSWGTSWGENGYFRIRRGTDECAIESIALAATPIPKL

Compound | Signal to Background (Cathepsin C; Time 5 min) | Background RLU (Cathepsin C; Time 5 min) | Signal to Background (Cathepsin C; Time 10 min) | Background RLU (Cathepsin C; Time 10 min) | Signal to Background (Cathepsin C; Time 20 min) | Background RLU (Cathepsin C; Time 20 min) | Signal to Background (Cathepsin C; Time 30 min) | Background RLU (Cathepsin C; Time 30 min) | Signal to Background (Cathepsin C; Time 40 min) | Background RLU (Cathepsin C; Time 40 min) | Signal to Background (Cathepsin C; Time 60 min) | Background RLU (Cathepsin C; Time 60 min) | Signal to Background (Cathepsin C; Time 90 min) | Background RLU (Cathepsin C; Time 90 min) | Signal to Background (Cathepsin C; Time 120 min) | Background RLU (Cathepsin C; Time 120 min) | Signal to Background (Cathepsin C; Time 180 min) | Background RLU (Cathepsin C; Time 180 min) | Signal to Background (Cathepsin C; Time 240 min) | Background RLU (Cathepsin C; Time 240 min) | further results
NCC(=O)NC(Cc1ccccc1)C(=O)Nc1ccc(COc2c(Cc3ccco3)nc3c(Cc4ccccc4)nc(-c4cccc(NC(=O)C(Cc5ccccc5)NC(=O)CN)c4)cn23)cc1 (stereo not drawn) [WZ-0299, Bis-Gly-Phe-Aminobenzyl Furimazine] | 751 | 20 RLU | 1,464 | 21 RLU | 2,256 | 18 RLU | 3,036 | 14 RLU | 3,941 | 14 RLU | 8,514 | 15 RLU | 11,997 | 16 RLU | 23,011 | 12 RLU | 29,836 | 17 RLU | 46,864 | 15 RLU | background (in words) (Cathepsin C; FIG. 3, Tables 5 and 6): down to instrument noise; Signal to Background (Cathepsin C; Time 938 min): 17,386; Background RLU (Cathepsin C; Time 938 min): 12 RLU; signal-to-background ratio (in words) (Cathepsin C; compared to mono-protected analogue WZ-0294): significantly higher
NCC(=O)NC(Cc1ccccc1)C(=O)Nc1ccc(COc2c(Cc3ccco3)nc3c(Cc4ccccc4)nc(-c4ccccc4)cn23)cc1 (stereo not drawn) [WZ-0294, Gly-Phe-Aminobenzyl Furimazine] | 151 | 8,974 RLU | 163 | 9,538 RLU | 180 | 10,825 RLU | 197 | 11,741 RLU | 210 | 12,664 RLU | 232 | 14,295 RLU | 255 | 16,141 RLU | 275 | 17,178 RLU | 273 | 20,562 RLU | 259 | 23,705 RLU | Signal to Background (Cathepsin C; Time 938 min): 142; Background RLU (Cathepsin C; Time 938 min): 15,995 RLU
O=P(O)(O)Oc1c(Cc2ccco2)nc2c(Cc3ccccc3)nc(-c3ccccc3)cn12 [WZ-0265, Furimazine Phosphate] | – | – | – | – | – | – | – | – | – | – | – | – | – | – | – | – | – | – | – | – | Signal to Background (alkaline phosphatase; Time 5 min): 3; Background RLU (alkaline phosphatase; Time 5 min): 9,033,396 RLU; Signal to Background (alkaline phosphatase; Time 11 min): 3; Background RLU (alkaline phosphatase; Time 11 min): 9,181,168 RLU; Signal to Background (alkaline phosphatase; Time 21 min): 3; Background RLU (alkaline phosphatase; Time 21 min): 9,310,668 RLU; Signal to Background (alkaline phosphatase; Time 31 min): 3; Background RLU (alkaline phosphatase; Time 31 min): 9,376,837 RLU; Signal to Background (alkaline phosphatase; Time 42 min): 2; Background RLU (alkaline phosphatase; Time 42 min): 9,394,555 RLU; Signal to Background (alkaline phosphatase; Time 62 min): 2; Background RLU (alkaline phosphatase; Time 62 min): 9,359,460 RLU; Signal to Background (alkaline phosphatase; Time 93 min): 2; Background RLU (alkaline phosphatase; Time 93 min): 9,089,377 RLU; Signal to Background (alkaline phosphatase; Time 123 min): 2; Background RLU (alkaline phosphatase; Time 123 min): 8,772,026 RLU
